Earlier results on one compound are cited in patent US20110092532A1 (priority 2009, published 2011).

Each structure is given as a SMILES string. Read-outs that look alike come from different tables or passages of the source.

The subject of data set [1] is Cat. Conditions: subcutaneous.
In data set [2] the test system is healthy volunteers. Conditions: healthy male volunteers, no anti-emetic drugs.
In data set [3] the test system is patients with motor fluctuations.
The conditions of data set [4]: rats, after oral ingestion, portal vein not shunted.
The subject of data set [5] is Dog. To be noted: in vivo, sc.
Setting [6] is: SL apomorphine, three patients with motor fluctuations.

With `CN1CCc2cccc3c2[C@H]1Cc1ccc(O)c(O)c1-3` [apomorphine], the “Reversible Toxicity Seen” value in data set [1] was 136 mg/kg; in data set [5] it was 36 to 71 mg/kg. In data set [2], the “amount of intravenous apomorphine which will reliably induce emesis” value was 2.5 mg. Moreover, the duration of effect in data set [3] (setting [6]) is 15 to 100 min. The latency to effect in data set [3] (setting [6]) was 20 to 40 min. Moreover, the “"off" periods” value in data set [3] (one patient, SL apomorphine as adjunct with levodopa, during one month) was “large decrease”. In addition, in data set [4], the “tissue levels of apomorphine” value was “not detectable”. Besides, the time of peak concentration (Tmax) is, setting by setting: (intranasal route) 23 min; (subcutaneous route) 18 min. Further, the lag time (intranasal route) was 2.8 min and the lag time (subcutaneous route) is 3.9 min.
